Results published in ChEMBL document CHEMBL1201862, “PubChem BioAssay data set” (2004).
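All cell lines were grown in 96-well plates and treated with compound for 48 hours. The concentration for 50% growth inhibition is given as GI50.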 Calls of active or inactive are those of the source. No stated cut-off is given here; in the data, active = GI50 up to about 1.1 µM and inactive = higher.

Experiments:
Assay in all cases: NCI-60 cell line screen, 48 h
IGROV-1 = tested on: IGROV-1
SK-MEL-5 = tested on: SK-MEL-5
HOP-62 = tested on: HOP-62
786-0 = tested on: 786-0
NCI/ADR-RES = tested on: NCI/ADR-RES
SK-OV-3 = tested on: SK-OV-3
TK-10 = tested on: TK-10
SW-620 = tested on: SW-620
NCI-H522 = tested on: NCI-H522
U-251 = tested on: U-251
NCI-H226 = tested on: NCI-H226
DU-145 = tested on: DU-145
Malme-3M = tested on: Malme-3M
RPMI-8226 = tested on: RPMI-8226
MDA-MB-231 = tested on: MDA-MB-231
UACC-62 = tested on: UACC-62
EKVX = tested on: EKVX
MCF7 = tested on: MCF7
HT-29 = tested on: HT-29
OVCAR-4 = tested on: OVCAR-4
SK-MEL-28 = tested on: SK-MEL-28
SNB-19 = tested on: SNB-19
SNB-75 = tested on: SNB-75
BT-549 = tested on: BT-549
A549 = tested on: A549
PC-3 = tested on: PC-3
NCI-H23 = tested on: NCI-H23
COLO 205 = tested on: COLO 205
SF-268 = tested on: SF-268
HCT-15 = tested on: HCT-15
NCI-H460 = tested on: NCI-H460
HOP-92 = tested on: HOP-92
CAKI-1 = tested on: CAKI-1
SF-539 = tested on: SF-539
T47D = tested on: T47D
HCC 2998 = tested on: HCC 2998
UO-31 = tested on: UO-31
ACHN = tested on: ACHN
A498 = tested on: A498
SK-MEL-2 = tested on: SK-MEL-2
HCT-116 = tested on: HCT-116
RXF 393 = tested on: RXF 393
HL-60 = tested on: HL-60
OVCAR-3 = tested on: OVCAR-3
LOX IMVI = tested on: LOX IMVI
MDA-MB-435 = tested on: MDA-MB-435
KM12 = tested on: KM12
OVCAR-5 = tested on: OVCAR-5
SN12C = tested on: SN12C
Hs-578T = tested on: Hs-578T
SF-295 = tested on: SF-295
M14 = tested on: M14
OVCAR-8 = tested on: OVCAR-8
MOLT-4 = tested on: MOLT-4
UACC-257 = tested on: UACC-257
K562 = tested on: K562
CCRF-CEM = tested on: CCRF-CEM

SMILES: CC(C)(C)n1nc(C2CC2)cc1NC(=O)Nc1ccc(Cl)cc1
- GI50 (IGROV-1): > 100 µM (inactive)
- GI50 (SK-MEL-5): > 100 µM (inactive)
- GI50 (HOP-62): > 100 µM (inactive)
- GI50 (786-0): > 100 µM (inactive)
- GI50 (NCI/ADR-RES): > 100 µM (inactive)
- GI50 (SK-OV-3): > 100 µM (inactive)
- GI50 (TK-10): > 100 µM (inactive)
- GI50 (SW-620): > 100 µM (inactive)
- GI50 (NCI-H522): > 100 µM (inactive)
- GI50 (U-251): > 100 µM (inactive)
- GI50 (NCI-H226): > 100 µM (inactive)
- GI50 (DU-145): > 100 µM (inactive)
- GI50 (Malme-3M): > 100 µM (inactive)
- GI50 (RPMI-8226): > 100 µM (inactive)
- GI50 (MDA-MB-231): > 100 µM (inactive)
- GI50 (UACC-62): > 100 µM (inactive)
- GI50 (EKVX): > 100 µM (inactive)
- GI50 (MCF7): > 100 µM (inactive)
- GI50 (HT-29): > 100 µM (inactive)
- GI50 (OVCAR-4): > 100 µM (inactive)
- GI50 (SK-MEL-28): > 100 µM (inactive)
- GI50 (SNB-19): > 100 µM (inactive)
- GI50 (SNB-75): 78 µM (inactive)
- GI50 (BT-549): > 100 µM (inactive)
- GI50 (A549): > 100 µM (inactive)
- GI50 (PC-3): > 100 µM (inactive)
- GI50 (NCI-H23): > 100 µM (inactive)
- GI50 (COLO 205): > 100 µM (inactive)
- GI50 (SF-268): > 100 µM (inactive)
- GI50 (HCT-15): > 100 µM
- GI50 (NCI-H460): > 100 µM (inactive)
- GI50 (HOP-92): > 100 µM (inactive)
- GI50 (CAKI-1): > 100 µM (inactive)
- GI50 (SF-539): > 100 µM (inactive)
- GI50 (T47D): > 100 µM (inactive)
- GI50 (HCC 2998): > 100 µM (inactive)
- GI50 (UO-31): > 100 µM (inactive)
- GI50 (ACHN): > 100 µM (inactive)
- GI50 (A498): > 100 µM (inactive)
- GI50 (SK-MEL-2): > 100 µM (inactive)
- GI50 (HCT-116): > 100 µM (inactive)
- GI50 (RXF 393): > 100 µM (inactive)
- GI50 (HL-60): > 100 µM (inactive)
- GI50 (OVCAR-3): > 100 µM (inactive)
- GI50 (LOX IMVI): > 100 µM (inactive)
- GI50 (MDA-MB-435): > 100 µM (inactive)
- GI50 (KM12): > 100 µM (inactive)
- GI50 (OVCAR-5): > 100 µM (inactive)
- GI50 (SN12C): > 100 µM (inactive)
- GI50 (Hs-578T): > 100 µM (inactive)
- GI50 (SF-295): > 100 µM (inactive)
- GI50 (M14): > 100 µM (inactive)
- GI50 (OVCAR-8): > 100 µM (inactive)
- GI50 (MOLT-4): > 100 µM (inactive)
- GI50 (UACC-257): > 100 µM (inactive)
- GI50 (K562): > 100 µM (inactive)

SMILES: CS(=O)(=O)Nc1ccc(Nc2ccnc3ccc4[nH]ccc4c23)cc1
- GI50 (IGROV-1): 20 µM (inactive)
- GI50 (SK-MEL-5): 11.7 µM (inactive)
- GI50 (HOP-62): 13.9 µM (inactive)
- GI50 (786-0): 9.64 µM (inactive)
- GI50 (NCI/ADR-RES): > 100 µM (inactive)
- GI50 (SK-OV-3): 19.5 µM (inactive)
- GI50 (TK-10): 30.2 µM (inactive)
- GI50 (SW-620): 8.32 µM (inactive)
- GI50 (NCI-H522): 6.4 µM (inactive)
- GI50 (U-251): 9.93 µM (inactive)
- GI50 (NCI-H226): 8.49 µM (inactive)
- GI50 (DU-145): 9.93 µM (inactive)
- GI50 (Malme-3M): 3.88 µM (inactive)
- GI50 (RPMI-8226): 21 µM (inactive)
- GI50 (MDA-MB-231): 8.93 µM (inactive)
- GI50 (UACC-62): 14.3 µM (inactive)
- GI50 (EKVX): 24.8 µM (inactive)
- GI50 (MCF7): 4.89 µM (inactive)
- GI50 (HT-29): 18.4 µM (inactive)
- GI50 (OVCAR-4): 7.83 µM (inactive)
- GI50 (SK-MEL-28): 15.8 µM (inactive)
- GI50 (SNB-19): 6.52 µM (inactive)
- GI50 (BT-549): 19.7 µM (inactive)
- GI50 (A549): 19.5 µM (inactive)
- GI50 (PC-3): 12.4 µM (inactive)
- GI50 (NCI-H23): 16.3 µM (inactive)
- GI50 (COLO 205): 9.1 µM (inactive)
- GI50 (SF-268): 5.13 µM (inactive)
- GI50 (HCT-15): 46 µM
- GI50 (NCI-H460): 15.2 µM (inactive)
- GI50 (HOP-92): 8.36 µM (inactive)
- GI50 (CAKI-1): 27.7 µM (inactive)
- GI50 (T47D): 3.77 µM (inactive)
- GI50 (HCC 2998): 4.98 µM (inactive)
- GI50 (UO-31): 29.7 µM (inactive)
- GI50 (ACHN): 21.5 µM (inactive)
- GI50 (A498): 18.5 µM (inactive)
- GI50 (SK-MEL-2): 10.3 µM (inactive)
- GI50 (HCT-116): 5.5 µM (inactive)
- GI50 (RXF 393): 14 µM (inactive)
- GI50 (HL-60): 21.4 µM (inactive)
- GI50 (OVCAR-3): 10.3 µM (inactive)
- GI50 (LOX IMVI): 9.12 µM (inactive)
- GI50 (MDA-MB-435): 15.1 µM (inactive)
- GI50 (CCRF-CEM): 4.35 µM (inactive)
- GI50 (KM12): 11.6 µM (inactive)
- GI50 (OVCAR-5): 26.3 µM (inactive)
- GI50 (SN12C): 7.96 µM (inactive)
- GI50 (Hs-578T): 21.8 µM (inactive)
- GI50 (SF-295): 24.5 µM (inactive)
- GI50 (M14): 16.1 µM (inactive)
- GI50 (OVCAR-8): 7.96 µM (inactive)
- GI50 (MOLT-4): 3.13 µM (inactive)
- GI50 (UACC-257): 15.6 µM (inactive)
- GI50 (K562): 6.64 µM (inactive)
